The source of these data is patent US9387209B2, “Histone deacetylases (HDACs) inhibitors” (ANNJI PHARMACEUTICAL CO., LTD., priority 2012, dated 2016).

Data set [1] has as its target human histone deacetylases (HDAC) 1 (Homo sapiens, UniProt Q13547). In words: HDAC enzymatic assay, HDAC1. Particulars: read-out: IC50 HDAC1 (grading). In kind it is biochemical.
The target in data set [2] is T1, human histone deacetylases (HDAC) 6 (Homo sapiens, UniProt Q9UBN7).
T1 sequence (Q9UBN7 1-1215): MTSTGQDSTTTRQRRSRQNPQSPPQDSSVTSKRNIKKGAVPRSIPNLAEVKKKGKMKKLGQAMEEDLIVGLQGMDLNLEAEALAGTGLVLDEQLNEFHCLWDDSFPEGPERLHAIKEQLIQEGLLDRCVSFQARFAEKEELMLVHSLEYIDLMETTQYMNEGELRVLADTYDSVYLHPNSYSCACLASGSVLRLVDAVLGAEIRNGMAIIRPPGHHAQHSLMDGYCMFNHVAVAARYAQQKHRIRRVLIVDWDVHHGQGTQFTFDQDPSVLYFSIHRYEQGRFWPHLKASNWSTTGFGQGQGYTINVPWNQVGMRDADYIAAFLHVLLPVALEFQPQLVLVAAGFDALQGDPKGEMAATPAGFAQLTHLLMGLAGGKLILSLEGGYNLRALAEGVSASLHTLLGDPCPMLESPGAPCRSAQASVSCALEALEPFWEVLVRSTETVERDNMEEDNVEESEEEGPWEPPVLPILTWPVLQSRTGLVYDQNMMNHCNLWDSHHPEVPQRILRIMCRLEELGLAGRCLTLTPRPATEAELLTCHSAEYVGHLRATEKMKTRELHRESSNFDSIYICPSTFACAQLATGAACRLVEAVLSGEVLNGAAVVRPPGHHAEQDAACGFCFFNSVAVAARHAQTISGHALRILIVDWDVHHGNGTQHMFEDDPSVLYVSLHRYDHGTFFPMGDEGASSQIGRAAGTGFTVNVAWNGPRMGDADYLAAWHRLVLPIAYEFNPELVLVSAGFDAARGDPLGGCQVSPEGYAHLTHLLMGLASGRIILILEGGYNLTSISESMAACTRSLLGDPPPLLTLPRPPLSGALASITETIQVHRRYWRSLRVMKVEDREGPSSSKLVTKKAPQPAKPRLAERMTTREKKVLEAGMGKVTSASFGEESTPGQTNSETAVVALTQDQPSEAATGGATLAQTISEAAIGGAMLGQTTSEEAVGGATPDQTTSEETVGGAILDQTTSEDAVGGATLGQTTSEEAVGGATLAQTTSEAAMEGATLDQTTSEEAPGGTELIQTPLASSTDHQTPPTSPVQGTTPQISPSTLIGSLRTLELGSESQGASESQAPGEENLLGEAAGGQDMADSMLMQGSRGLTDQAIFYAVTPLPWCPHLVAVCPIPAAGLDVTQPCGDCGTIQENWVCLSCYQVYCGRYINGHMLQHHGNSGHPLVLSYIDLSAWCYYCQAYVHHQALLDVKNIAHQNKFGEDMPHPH
In words: HDAC enzymatic assay, HDAC6. The class given is biochemical. To be noted: for IC50: HDAC6, read-out: IC50 HDAC6 (grading); for selective inhibitions on HDAC6: HDAC6 versus other HDACs.

The target of data set [3] is T2, human histone deacetylases (HDAC) 8 (Homo sapiens, UniProt Q9BY41).
T2 sequence (Q9BY41 1-377): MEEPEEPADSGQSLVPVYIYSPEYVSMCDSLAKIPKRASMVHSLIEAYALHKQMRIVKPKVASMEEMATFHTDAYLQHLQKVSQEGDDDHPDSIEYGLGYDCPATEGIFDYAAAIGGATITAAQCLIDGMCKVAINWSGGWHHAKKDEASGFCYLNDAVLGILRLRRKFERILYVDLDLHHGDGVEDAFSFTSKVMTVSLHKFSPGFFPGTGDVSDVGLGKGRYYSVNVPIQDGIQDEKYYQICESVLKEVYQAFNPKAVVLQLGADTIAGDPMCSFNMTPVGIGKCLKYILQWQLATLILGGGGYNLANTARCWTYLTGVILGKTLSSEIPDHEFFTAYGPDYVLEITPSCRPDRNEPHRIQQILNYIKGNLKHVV
In words: HDAC enzymatic assay, HDAC8. In kind it is biochemical. Particulars: HDAC8; read-out: IC50 HDAC8 (grading).

The test system of data set [4] is PC 12 cells. Description: Neurite outgrowth assay, PC 12. Particulars: Rattus norvegicus. The class given is cell-based.
The subject of data set [5] is SH-SY5Y cells. Description: Neurite outgrowth assay, SH-SY5Y. In kind it is cell-based. To be noted: Homo sapiens.
Data set [6] has as its target T3, zinc-mediated β-amyloid aggregation (Homo sapiens, UniProt P05067). Description: Anti-amyloid aggregation assay, thioflavin S. The class given is biochemical. To be noted: detected by thioflavin S. The protocol: (§1) Anti-Amyloid Aggregation Assay.
(§2) The effects of compounds on inhibition of β-amyloid aggregation were assayed. The levels of β-amyloid aggregates were determined by thioflavin S, BCA or CR assays (Tables 1). Thioflavin S, and Congo red are for in vitro staining of aggregated β-amyloid. Bicinchoninic acid (BCA) assay determines the total protein level or concentration.

For data set [7], the target named is T3, zinc-mediated β-amyloid aggregation. Description: Anti-amyloid aggregation assay, BCA. To be noted: detected by BCA. In kind it is biochemical. The protocol:
as §1, §2

The target is the same in data set [8]. Description: Anti-amyloid aggregation assay, CR (Congo red). In kind it is biochemical. Particulars: detected by CR. The protocol: as §1, §2
Data set [9] relates to PC 12 cells. In words: Neurite synaptic uptake activity (FM1-43), PC 12. The class given is cell-based. To be noted: Rattus norvegicus, NGF positive control taken as 100%, read-out: uptake of dye FM1-43 EC50. The protocol: (§3) Neurite Synaptic Uptake Activity Analysis.
(§4) The effects of compounds on the neuronal synapse uptake of fluorescent indicator FM1-43 were assayed. The uptake of the dye indicated the synaptic function of the neurites. PC 12 and SH-SY5Y cells were used. Cells in experimental groups were treated with a test compound and FM1-43; Cells in positive control were treated with NGF and FM1-43; Cells in negative control were treated with a vehicle and FM1-43. The fluorescence in the positive control were taken as 100%.

Data set [10] has as its system SH-SY5Y cells. In words: Neurite synaptic uptake activity (FM1-43), SH-SY5Y. In kind it is cell-based. Particulars: Homo sapiens, NGF positive control taken as 100%, read-out: uptake of dye FM1-43 EC50. Here is the method:
as §3, §4

The subject of data set [11] is hippocampus-lesioned mice. Description: Rotarod test in Alzheimer disease model. In kind it is in vivo. Particulars: daily i.p. 10 mg/kg for 30 days, compared to vehicle. An excerpt:
To test the effect of the compound in improving the learning ability of the animals in Alzheimer disease model, β-aggregates-induced hippocampal lesions were used to generate learning-impaired mice.

The nature of data set [12]: MTT or SRB assay for cytotoxicity, A549. Particulars: human, A549 cells, read-out: cytotoxicity IC50 (grading) A549. The class given is cell-based. The protocol:
(§5) MTT or SRB Assays for Cytotoxicities of HDAC Inhibitors.
(§6) These compounds were assayed for cytotoxicities to the following cells: A549 cells (adenocarcinomic human alveolar basal epithelial cells), HCT-116 cells (human colon carcinoma cells). PANC-1 cells (human pancreatic carcinoma, epithelial-like cell line) and HepG2 cells (human liver hepatocellular carcinoma cell line), neuronal cells PC12 (rat pheochromocytoma cell line) and SH-SY5Y (human neuroblastoma cell line). MTT (3-[4,5-dimethylthiazol-2-yl]2,5-diphenyl-tetrazolium bromide) reduction was collaborated by using trypan blue exclusion assay.

Data set [13] can be described thus: MTT or SRB assay for cytotoxicity, HCT116. Particulars: human, HCT-116 cells, read-out: cytotoxicity IC50 (grading) HCT116. The class given is cell-based. Here is the method:
as §5, §6

Data set [14] is described as follows: MTT or SRB assay for cytotoxicity, PANC1. In kind it is cell-based. Particulars: human, PANC-1 cells, read-out: cytotoxicity IC50 (grading) PANC1. The protocol:
as §5, §6

Data set [15] in a line: MTT or SRB assay for cytotoxicity, HepG2. The class given is cell-based. To be noted: human, HepG2 cells, read-out: cytotoxicity IC50 (grading) HepG2. Here is the method: as §5, §6

SMILES strings stand for the structures.

Sequence of human histone deacetylases (HDAC) 1 (Q13547 whole entry): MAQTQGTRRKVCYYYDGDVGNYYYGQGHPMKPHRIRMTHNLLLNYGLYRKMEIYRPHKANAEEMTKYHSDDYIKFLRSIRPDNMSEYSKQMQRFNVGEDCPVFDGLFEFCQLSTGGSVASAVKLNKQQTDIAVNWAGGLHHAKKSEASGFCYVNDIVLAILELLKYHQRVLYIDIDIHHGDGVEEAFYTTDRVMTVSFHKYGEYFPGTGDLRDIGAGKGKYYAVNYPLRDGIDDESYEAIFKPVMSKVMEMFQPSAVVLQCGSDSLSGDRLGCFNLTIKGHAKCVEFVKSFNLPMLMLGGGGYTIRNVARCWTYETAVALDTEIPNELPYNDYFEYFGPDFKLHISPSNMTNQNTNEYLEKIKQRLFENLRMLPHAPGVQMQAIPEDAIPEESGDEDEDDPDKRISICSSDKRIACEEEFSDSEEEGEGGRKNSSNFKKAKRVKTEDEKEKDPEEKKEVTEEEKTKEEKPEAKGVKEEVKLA
T3 sequence (P05067 672-711 limits assumed): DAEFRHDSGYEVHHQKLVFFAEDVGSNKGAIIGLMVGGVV

In the case of `Cc1nc2cc(/C=C/C(=O)NO)ccc2c(=O)n1Cc1ccccc1` [Compound 1e, (2E)-3-(3-benzyl-3,4-dihydro-2-methyl-4-oxoquinazolin-7-yl)-N-hydroxyacrylamide], the IC50 in [1] was 1 to 10 µM; in [2] it was below 0.1 µM; in data set [3], 1 to 10 µM; in data set [6], 18.1 µM; in [7] it was 10.6 µM; in [8], 5.8 µM. In data set [2], the “selective inhibitions on HDAC6” value is “selective inhibitions on HDAC6”. The EC50 in the data set with PC 12 cells [4] was found to be 8.21 ± 0.37 µM; in the data set on SH-SY5Y cells [5] it was 8.2 ± 0.92 µM; in the data set on PC 12 cells [9], 8.21 ± 0.37 µM; with SH-SY5Y cells [10] it was 8.2 ± 0.92 µM.

As to `Cc1nc2cc(/C=C/C(=O)NO)ccc2c(=O)n1CCc1ccccc1` [Compound 1f, (2E)-3-(3,4-dihydro-2-methyl-4-oxo-3-phenethylquinazolin-7-yl)-N-hydroxyacrylamide], the IC50 in data set [1] was 1 to 10 µM; in data set [2], below 0.1 µM; in data set [3], 1 to 10 µM; in [6] it was 9.5 µM; in data set [7], 11.7 µM; in [8], 43.1 µM. Further, in data set [2], the “selective inhibitions on HDAC6” value is “selective inhibitions on HDAC6”. The EC50 with PC 12 cells [4] amounted to 6.49 ± 0.78 µM; with SH-SY5Y cells [5], 6.77 ± 0.96 µM; in the data set with PC 12 cells [9] it was 6.49 ± 0.78 µM; in the data set with SH-SY5Y cells [10], 6.77 ± 0.96 µM. Moreover, the “learning performance in rotarod test” value in data set [11] is reported as “improved learning performance”.

As for `O=C(/C=C/c1ccc2c(=O)n(CCc3ccccc3)cnc2c1)NO` [Compound 1h, (2E)-3-(3,4-dihydro-4-oxo-3-phenethylquinazolin-7-yl)-N-hydroxyacrylamide], the melting point is 197 to 199 °C (dec.). Moreover, the half-maximal inhibitory concentration (IC50) in data set [1] lay in the range of 0.1 to 1 µM. In data set [2], the IC50 was below 0.1 µM and the “selective inhibitions on HDAC6” value is “selective inhibitions on HDAC6”. In data set [3], the IC50 was in the range of 0.1 to 1 µM. Moreover, in the data set with PC 12 cells [4], the EC50 stood at 14.5 ± 1.47 µM. Also, a half-maximal response in the data set on SH-SY5Y cells [5] (EC50) required 4.93 ± 1.34 µM. Further, in [6], the IC50 was determined as 5.5 µM. Also, the IC50 in data set [7] worked out at 35 µM. Besides, in [8], the IC50 was 14.6 µM. For the same molecule, the EC50 in the data set with PC 12 cells [9] amounted to 14.5 ± 1.47 µM. In the data set on SH-SY5Y cells [10], the EC50 amounted to 4.93 ± 1.34 µM.

In turn, `CCc1nc2cc(/C=C/C(=O)NO)ccc2c(=O)n1CCc1ccccc1` [Compound 1i, (2E)-3-(2-ethyl-3,4-dihydro-4-oxo-3-phenethylquinazolin-7-yl)-N-hydroxyacrylamide] yielded a melting point of 209 to 211 °C. The IC50 in data set [1] was in the range of 1 to 10 µM. In addition, in [2], the IC50 was below 0.1 µM and the “selective inhibitions on HDAC6” value was “selective inhibitions on HDAC6”. Moreover, in [3], the IC50 is 1 to 10 µM. For the same molecule, in data set [12], the IC50 was at least 10 µM. Further, the IC50 in data set [13] is at least 10 µM. In data set [14], the IC50 is at least 10 µM. For the same molecule, in data set [15], the IC50 was in the range of 1 to 10 µM. Further, the midpoint of the response in the data set with PC 12 cells [4], the EC50, lay at 7.21 ± 0.32 µM. A half-maximal effect in the data set with SH-SY5Y cells [5] (EC50) was put at 0.88 ± 0.45 µM. Besides, in data set [6], the IC50 amounted to 6.8 µM. The same molecule registered an IC50 in [7] of 3.9 µM. This molecule also gave an IC50 in [8] of 5.5 µM. Further, in the data set with PC 12 cells [9], the EC50 stood at 7.21 ± 0.32 µM. Further, the EC50 with SH-SY5Y cells [10] turned out to be 0.88 ± 0.45 µM.

Consider `Cc1nc2cc(/C=C/C(=O)Nc3ccccc3N)ccc2c(=O)n1CCc1ccccc1` [Compound 6a, (2E)-N-(2-aminophenyl)-3-(3,4-dihydro-2-methyl-4-oxo-3-phenethylquinazolin-7-yl)acrylamide], for which the melting point was 246 to 248 °C (dec.). The IC50 in [1] fell in the range of 1 to 10 µM. The IC50 in [2] is above 10 µM. The IC50 in data set [3] is above 10 µM. In addition, the IC50 in [12] is at least 10 µM. Also, the IC50 in data set [13] is at least 10 µM. In addition, in [14], the IC50 lay within 1 to 10 µM. The IC50 in data set [15] lay in the range of 0.1 to 1 µM. For the same molecule, in the data set on PC 12 cells [4], a half-maximal effect (EC50) was put at 6.59 ± 1.06 µM. The same molecule returned an EC50 with SH-SY5Y cells [5] of 8.81 ± 1.04 µM. Moreover, the IC50 in data set [6] is 10.7 µM. The molecule also returned an IC50 in data set [7] of 13.8 µM. For the same molecule, the IC50 in data set [8] came to 30.9 µM. Moreover, the EC50 in the data set with PC 12 cells [9] came to 6.59 ± 1.06 µM. Moreover, the EC50 in the data set with SH-SY5Y cells [10] turned out to be 8.81 ± 1.04 µM.
